{"source": "paper PMC5218480", "about": "(PLoS ONE, 2017)", "test_system": "MV-4-11 cells", "assay": "Gene expression microarray analysis (Affymetrix PrimeView) and GSEA", "format": "cell-based, human", "set-up": "RFU PODN (11730768_x_at) / Fold change /veh PODN (11730768_x_at) / RFU LINC00158 (11744669_a_at) / Fold change /veh LINC00158 (11744669_a_at) / RFU DUSP10 (11751237_a_at) / Fold change /veh DUSP10 (11751237_a_at) / RFU ID3 (11757404_x_at) / Fold change /veh ID3 (11757404_x_at) / RFU PLEKHG5 (11737974_s_at) / Fold change /veh PLEKHG5 (11737974_s_at) / RFU LRRC4B (11730491_at) / Fold change /veh LRRC4B (11730491_at) / RFU GIMAP4 (11747438_a_at) / Fold change /veh GIMAP4 (11747438_a_at) / RFU KRT8 (11758183_x_at) / Fold change /veh KRT8 (11758183_x_at) / RFU CNN1 (11734310_a_at) / Fold change /veh CNN1 (11734310_a_at) / RFU VPS37D (11726825_at) / Fold change /veh VPS37D (11726825_at) / RFU C10orf10 (11716522_x_at) / Fold change /veh C10orf10 (11716522_x_at) / RFU KIR2DL2 /// KIR2DL4 /// KIR2DL5A /// KIR2DL5B /// KIR2DS1 /// KIR2DS2 /// KIR2DS3 /// KIR2DS4 /// KIR3DL3 /// KIR3DL3 /// KIR3DS1 (11738374_at) / Fold change /veh KIR2DL2 /// KIR2DL4 /// KIR2DL5A /// KIR2DL5B /// KIR2DS1 /// KIR2DS2 /// KIR2DS3 /// KIR2DS4 /// KIR3DL3 /// KIR3DL3 /// KIR3DS1 (11738374_at) / RFU C1QL1 (11718748_at) / Fold change /veh C1QL1 (11718748_at) / RFU TMPRSS4 (11747572_a_at) / Fold change /veh TMPRSS4 (11747572_a_at) / RFU HAMP (11756126_x_at) / Fold change /veh HAMP (11756126_x_at) / RFU RNFT2 (11725882_a_at) / Fold change /veh RNFT2 (11725882_a_at) / RFU NR4A2 (11747474_a_at) / Fold change /veh NR4A2 (11747474_a_at) / RFU ABCC12 (11746883_a_at) / Fold change /veh ABCC12 (11746883_a_at) / RFU TMEM136 (11760407_x_at) / Fold change /veh TMEM136 (11760407_x_at) / RFU CLDN22 /// WWC2 (11732394_at) / Fold change /veh CLDN22 /// WWC2 (11732394_at) / RFU HLA-DPB1 (11760878_x_at) / Fold change /veh HLA-DPB1 (11760878_x_at) / RFU SPINT1 (11716480_a_at) / Fold change /veh SPINT1 (11716480_a_at) / RFU GAP43 (11754022_s_at) / Fold change /veh GAP43 (11754022_s_at) / RFU A4GNT (11735810_at) / Fold change /veh A4GNT (11735810_at) / RFU PRB3 (11715151_x_at) / Fold change /veh PRB3 (11715151_x_at) / RFU TUBB4B (11761932_at) / Fold change /veh TUBB4B (11761932_at) / RFU CAPN14 (11732068_a_at) / Fold change /veh CAPN14 (11732068_a_at) / RFU TMCC2 (11721928_a_at) / Fold change /veh TMCC2 (11721928_a_at) / RFU IRGQ (11745062_a_at) / Fold change /veh IRGQ (11745062_a_at) / RFU FAM174B (11720279_a_at) / Fold change /veh FAM174B (11720279_a_at) / RFU TMPRSS4 (11748680_a_at) / Fold change /veh TMPRSS4 (11748680_a_at) / RFU FAM212B (11763350_a_at) / Fold change /veh FAM212B (11763350_a_at) / RFU PLEKHG5 (11743358_a_at) / Fold change /veh PLEKHG5 (11743358_a_at) / RFU ZSCAN30 (11745921_a_at) / Fold change /veh ZSCAN30 (11745921_a_at) / RFU CMKLR1 (11741424_a_at) / Fold change /veh CMKLR1 (11741424_a_at) / RFU LOC101060620 /// MAPK8IP1 (11723275_at) / Fold change /veh LOC101060620 /// MAPK8IP1 (11723275_at) / RFU SPTSSB (11747773_x_at) / Fold change /veh SPTSSB (11747773_x_at) / RFU PRSS12 (11739890_at) / Fold change /veh PRSS12 (11739890_at) / RFU BIN1 (11741810_x_at) / Fold change /veh BIN1 (11741810_x_at) / RFU WNT11 (11732464_a_at) / Fold change /veh WNT11 (11732464_a_at) / RFU C10orf10 (11716521_a_at) / Fold change /veh C10orf10 (11716521_a_at) / RFU C5orf56 (11738089_at) / Fold change /veh C5orf56 (11738089_at) / RFU CYB561 (11721691_x_at) / Fold change /veh CYB561 (11721691_x_at) / RFU ANKRD19P (11752326_a_at) / Fold change /veh ANKRD19P (11752326_a_at) / RFU OR2T12 /// OR2T33 /// OR2T8 (11738714_s_at) / Fold change /veh OR2T12 /// OR2T33 /// OR2T8 (11738714_s_at) / RFU VCAN (11748164_a_at) / Fold change /veh VCAN (11748164_a_at) / RFU JSRP1 (11732532_at) / Fold change /veh JSRP1 (11732532_at) / RFU KRTAP10-11 (11738290_x_at) / Fold change /veh KRTAP10-11 (11738290_x_at) / RFU MYO3A (11730013_a_at) / Fold change /veh MYO3A (11730013_a_at) / RFU EBF3 (11725865_a_at) / Fold change /veh EBF3 (11725865_a_at) / RFU CAMK2N1 (11719241_x_at) / Fold change /veh CAMK2N1 (11719241_x_at) / RFU C5orf56 (11738088_a_at) / Fold change /veh C5orf56 (11738088_a_at) / RFU OLFML3 (11715873_a_at) / Fold change /veh OLFML3 (11715873_a_at) / RFU LOC100653217 /// NTM (11731650_a_at) / Fold change /veh LOC100653217 /// NTM (11731650_a_at) / RFU MAPK11 (11762145_a_at) / Fold change /veh MAPK11 (11762145_a_at) / RFU FIZ1 (11724087_x_at) / Fold change /veh FIZ1 (11724087_x_at) / RFU OASL (11726364_x_at) / Fold change /veh OASL (11726364_x_at) / RFU SOX15 (11748057_x_at) / Fold change /veh SOX15 (11748057_x_at) / RFU CD79A (11719716_a_at) / Fold change /veh CD79A (11719716_a_at) / RFU HIST1H1D (11736915_at) / Fold change /veh HIST1H1D (11736915_at) / RFU CASKIN2 (11723855_a_at) / Fold change /veh CASKIN2 (11723855_a_at) / RFU LOC730098 (11760151_x_at) / Fold change /veh LOC730098 (11760151_x_at) / RFU OR4N2 (11742367_at) / Fold change /veh OR4N2 (11742367_at) / RFU PRRT2 (11749266_a_at) / Fold change /veh PRRT2 (11749266_a_at) / RFU SNX32 (11753110_a_at) / Fold change /veh SNX32 (11753110_a_at) / RFU CDHR5 (11726645_a_at) / Fold change /veh CDHR5 (11726645_a_at) / RFU RCAN1 (11760418_a_at) / Fold change /veh RCAN1 (11760418_a_at) / RFU FAM167A (11723789_a_at) / Fold change /veh FAM167A (11723789_a_at) / RFU FAM26E (11764081_at) / Fold change /veh FAM26E (11764081_at) / RFU ISYNA1 (11749810_s_at) / Fold change /veh ISYNA1 (11749810_s_at) / RFU ACY1 (11761880_at) / Fold change /veh ACY1 (11761880_at) / RFU 11764098_at / Fold change /veh 11764098_at / RFU SAMD14 (11745864_x_at) / Fold change /veh SAMD14 (11745864_x_at) / RFU NPB (11741838_a_at) / Fold change /veh NPB (11741838_a_at) / RFU TMPRSS6 (11731388_a_at) / Fold change /veh TMPRSS6 (11731388_a_at) / RFU KRTAP10-2 (11738614_at) / Fold change /veh KRTAP10-2 (11738614_at) / RFU ARHGAP8 /// PRR5-ARHGAP8 (11727945_x_at) / Fold change /veh ARHGAP8 /// PRR5-ARHGAP8 (11727945_x_at) / RFU KRTAP5-7 /// NADSYN1 (11734609_at) / Fold change /veh KRTAP5-7 /// NADSYN1 (11734609_at) / RFU RASL12 (11751679_a_at) / Fold change /veh RASL12 (11751679_a_at) / RFU CDKN2B (11736163_a_at) / Fold change /veh CDKN2B (11736163_a_at) / RFU PRF1 (11729649_at) / Fold change /veh PRF1 (11729649_at) / RFU, ZNF638 /// ZNF638-IT1 / Fold change vs veh, ZNF638 /// ZNF638-IT1 / RFU, PANK3 / Fold change vs veh, PANK3 / RFU, SH3YL1 / Fold change vs veh, SH3YL1 / RFU, ZEB2 / Fold change vs veh, ZEB2 / RFU, NRIP1 / Fold change vs veh, NRIP1 / RFU, PTTG1IP / Fold change vs veh, PTTG1IP / RFU, CAPN2 / Fold change vs veh, CAPN2 / RFU, MED14 / Fold change vs veh, MED14 / RFU, SNORA58 / Fold change vs veh, SNORA58 / RFU, C1orf63 / Fold change vs veh, C1orf63 / RFU, LRRFIP1 / Fold change vs veh, LRRFIP1 / RFU, NDUFAF7 / Fold change vs veh, NDUFAF7 / RFU, SLC12A2 / Fold change vs veh, SLC12A2 / RFU, IBTK / Fold change vs veh, IBTK / RFU, ESF1 / Fold change vs veh, ESF1 / Fold change vs veh, TMEM50B / RFU, TAOK1 / Fold change vs veh, TAOK1 / RFU, ACBD3 / Fold change vs veh, ACBD3 / RFU, TMA16 / Fold change vs veh, TMA16 / RFU, RWDD3 / Fold change vs veh, RWDD3 / RFU, BCAT1 / Fold change vs veh, BCAT1 / RFU, EDEM3 / Fold change vs veh, EDEM3 / RFU, TMEM33 / Fold change vs veh, TMEM33 / RFU, WDR75 / Fold change vs veh, WDR75 / RFU, AHCTF1 / Fold change vs veh, AHCTF1 / RFU, TFRC / Fold change vs veh, TFRC / RFU, ZDHHC17 / Fold change vs veh, ZDHHC17 / RFU, NOM1 / Fold change vs veh, NOM1 / RFU, ARL8B / Fold change vs veh, ARL8B / RFU, ZBTB11 / Fold change vs veh, ZBTB11 / RFU, TAMM41 / Fold change vs veh, TAMM41 / RFU, KIAA1704 /// LOC100996395 / Fold change vs veh, KIAA1704 /// LOC100996395 / RFU, ING1 / Fold change vs veh, ING1 / RFU, TRMT61B / Fold change vs veh, TRMT61B / RFU, FUBP3 / Fold change vs veh, FUBP3 / RFU, TP53 / Fold change vs veh, TP53 / RFU, TNKS2 / Fold change vs veh, TNKS2 / RFU, ZFP14 / Fold change vs veh, ZFP14 / RFU, ACTR2 / Fold change vs veh, ACTR2 / RFU, PPP3R1 / Fold change vs veh, PPP3R1 / RFU, PIK3R1 / Fold change vs veh, PIK3R1 / RFU, HNRNPA1 / Fold change vs veh, HNRNPA1 / RFU, RNF170 / Fold change vs veh, RNF170 / RFU, ZNF28 / Fold change vs veh, ZNF28 / RFU, RNGTT / Fold change vs veh, RNGTT / RFU, OGT / Fold change vs veh, OGT / RFU, BRD1 / Fold change vs veh, BRD1 / RFU, MARS / Fold change vs veh, MARS / RFU, ZNF655 / Fold change vs veh, ZNF655 / RFU, FAHD1 / Fold change vs veh, FAHD1 / RFU, BDP1 / Fold change vs veh, BDP1 / RFU, LRRCC1 / Fold change vs veh, LRRCC1 / RFU, ARID1A / Fold change vs veh, ARID1A / RFU, ZNF146 / Fold change vs veh, ZNF146 / RFU, ZNF330 / Fold change vs veh, ZNF330 / RFU, GPN3 / Fold change vs veh, GPN3 / RFU, C9orf123 / Fold change vs veh, C9orf123 / RFU, N4BP2L2 / Fold change vs veh, N4BP2L2 / RFU, ARFIP1 / Fold change vs veh, ARFIP1 / RFU, FAM179B / Fold change vs veh, FAM179B / RFU, BCL10 / Fold change vs veh, BCL10 / RFU, UHRF1BP1L / Fold change vs veh, UHRF1BP1L / RFU, BET1 / Fold change vs veh, BET1 / RFU, CNOT2 / Fold change vs veh, CNOT2 / RFU, ZNF268 / Fold change vs veh, ZNF268 / Fold change vs veh, ZNF507 / RFU, DGCR2 / Fold change vs veh, DGCR2 / RFU, WDSUB1 / Fold change vs veh, WDSUB1 / Fold change vs veh, HSP90B1 /// MIR3652 / RFU, ADSS / Fold change vs veh, ADSS / RFU, GK / Fold change vs veh, GK / RFU, ZNF148 / Fold change vs veh, ZNF148 / RFU, TAF9 / Fold change vs veh, TAF9 / RFU, SLC1A5 / Fold change vs veh, SLC1A5 / RFU, SLMO2 / Fold change vs veh, SLMO2 / RFU, ABCC4 / Fold change vs veh, ABCC4 / RFU, LOC101060439 /// RAP1B / Fold change vs veh, LOC101060439 /// RAP1B / RFU, RFX7 / Fold change vs veh, RFX7 / RFU, GTPBP10 / Fold change vs veh, GTPBP10 / RFU, CNEP1R1 / Fold change vs veh, CNEP1R1 / RFU, BIVM-ERCC5 /// ERCC5 / Fold change vs veh, BIVM-ERCC5 /// ERCC5 / RFU, ILF3 / Fold change vs veh, ILF3 / RFU 11762660_at / Fold change /veh 11762660_at / RFU VCAN (11757783_s_at) / Fold change /veh VCAN (11757783_s_at) / RFU DDX43 (11728927_at) / Fold change /veh DDX43 (11728927_at) / RFU KRT8 (11758188_x_at) / Fold change /veh KRT8 (11758188_x_at) / RFU NKD1 (11759106_at) / Fold change /veh NKD1 (11759106_at) / RFU SRD5A1 (11742802_a_at) / Fold change /veh SRD5A1 (11742802_a_at) / RFU TPSAB1 /// TPSB2 (11721975_s_at) / Fold change /veh TPSAB1 /// TPSB2 (11721975_s_at) / RFU GSTM3 (11746129_a_at) / Fold change /veh GSTM3 (11746129_a_at) / RFU IL23R (11737362_x_at) / Fold change /veh IL23R (11737362_x_at) / RFU TMEM51 (11727254_a_at) / Fold change /veh TMEM51 (11727254_a_at) / RFU PIWIL2 (11732686_x_at) / Fold change /veh PIWIL2 (11732686_x_at) / RFU ORM1 (11744905_x_at) / Fold change /veh ORM1 (11744905_x_at) / RFU CCDC152 (11743942_at) / Fold change /veh CCDC152 (11743942_at) / RFU ECM1 (11717891_a_at) / Fold change /veh ECM1 (11717891_a_at) / RFU IL23R (11748794_a_at) / Fold change /veh IL23R (11748794_a_at) / RFU TNFAIP8L3 (11732012_x_at) / Fold change /veh TNFAIP8L3 (11732012_x_at) / RFU MBOAT4 (11741988_at) / Fold change /veh MBOAT4 (11741988_at) / RFU 11764193_at / Fold change /veh 11764193_at / RFU TMEM53 (11763286_at) / Fold change /veh TMEM53 (11763286_at) / RFU MAGEB2 (11727129_at) / Fold change /veh MAGEB2 (11727129_at) / RFU TMEM200A (11744735_a_at) / Fold change /veh TMEM200A (11744735_a_at) / RFU CCDC152 (11751479_a_at) / Fold change /veh CCDC152 (11751479_a_at) / RFU FAM211A (11726209_a_at) / Fold change /veh FAM211A (11726209_a_at) / RFU RGS16 (11746705_a_at) / Fold change /veh RGS16 (11746705_a_at) / RFU VCAN (11755009_s_at) / Fold change /veh VCAN (11755009_s_at) / RFU RHOB (11743442_s_at) / Fold change /veh RHOB (11743442_s_at) / RFU RGS16 (11720943_a_at) / Fold change /veh RGS16 (11720943_a_at) / RFU RGS16 (11720944_at) / Fold change /veh RGS16 (11720944_at) / RFU, VPS4B / Fold change vs veh, VPS4B / RFU, CREB1 / Fold change vs veh, CREB1 / RFU, DNAJC13 / Fold change vs veh, DNAJC13 / RFU, GNAQ / Fold change vs veh, GNAQ / RFU, CDK5R1 / Fold change vs veh, CDK5R1 / RFU, ZRANB3 / Fold change vs veh, ZRANB3 / RFU, CUL4A / Fold change vs veh, CUL4A / RFU, CCNY / Fold change vs veh, CCNY / RFU, UFL1 / Fold change vs veh, UFL1 / RFU, COG3 / Fold change vs veh, COG3 / RFU, DIAPH2 / Fold change vs veh, DIAPH2 / RFU, SKA2 / Fold change vs veh, SKA2 / RFU, AFF3 / Fold change vs veh, AFF3 / RFU, LMF1 / Fold change vs veh, LMF1 / RFU, IPO11 / Fold change vs veh, IPO11 / RFU, DFFB / Fold change vs veh, DFFB / RFU, FOXP1 / Fold change vs veh, FOXP1 / RFU, CARD8 / Fold change vs veh, CARD8 / RFU, STRN3 / Fold change vs veh, STRN3 / RFU, ADK / Fold change vs veh, ADK / RFU, RASSF2 / Fold change vs veh, RASSF2 / RFU, WIPF1 / Fold change vs veh, WIPF1 / RFU, LARP1B / Fold change vs veh, LARP1B / RFU, RASA1 / Fold change vs veh, RASA1 / RFU, RB1 / Fold change vs veh, RB1 / RFU, PPFIA1 / Fold change vs veh, PPFIA1 / RFU, MAT2A / Fold change vs veh, MAT2A / RFU, CCT5 / Fold change vs veh, CCT5 / RFU, WDR92 / Fold change vs veh, WDR92 / RFU, CUX1 / Fold change vs veh, CUX1 / RFU, TTC7A / Fold change vs veh, TTC7A / RFU, TMEM135 / Fold change vs veh, TMEM135 / RFU, DEPTOR / Fold change vs veh, DEPTOR / RFU, CPM / Fold change vs veh, CPM / RFU, DNAJB6 / Fold change vs veh, DNAJB6 / RFU, CACNA2D3 / Fold change vs veh, CACNA2D3 / RFU, DTX4 / Fold change vs veh, DTX4 / RFU, TFCP2 / Fold change vs veh, TFCP2 / RFU, GMCL1 /// GMCL1P1 / Fold change vs veh, GMCL1 /// GMCL1P1 / RFU, AEBP2 / Fold change vs veh, AEBP2 / RFU, SNHG1 /// SNORD22 /// SNORD25 /// SNORD26 /// SNORD27 /// SNORD28 /// SNORD29 /// SNORD31 / Fold change vs veh, SNHG1 /// SNORD22 /// SNORD25 /// SNORD26 /// SNORD27 /// SNORD28 /// SNORD29 /// SNORD31 / Fold change (Aza/veh), C12orf56 (ProbeSet 11735607_a_at) / Fold change (ACY-1035/veh), C12orf56 (ProbeSet 11735607_a_at) / Fold change (Aza/veh), FGFR1OP (ProbeSet 11751329_s_at) / Fold change (ACY-1035/veh), FGFR1OP (ProbeSet 11751329_s_at) / Fold change (Aza/veh), VPS36 (ProbeSet 11739960_a_at) / Fold change (ACY-1035/veh), VPS36 (ProbeSet 11739960_a_at) / RFU SYPL1 (11715823_x_at) / Fold change /veh SYPL1 (11715823_x_at) / RFU IGFBP7 (11715501_s_at) / Fold change /veh IGFBP7 (11715501_s_at) / RFU REEP3 (11722064_at) / Fold change /veh REEP3 (11722064_at) / RFU IGLL1 (11728026_x_at) / Fold change /veh IGLL1 (11728026_x_at): dose or concentration left out as unconfirmed", "settings": "MV-4-11 cells, 48 hours"}
{"smiles": "Nc1ncn([C@@H]2O[C@H](CO)[C@@H](O)[C@H]2O)c(=O)n1", "note": "[azacitidine]", "values": [{"measurement": "RFU REEP3 (11722064_at)", "value": 27.20, "unit": "RFU"}]}
